# Patent US20140011755A1, “Cardiac Glycosides for Treating Autoimmune Disease” (Department of Veterans Affairs, priority 2010, published 2014)
# Key:
# [1] = test system: SLE-like disease; assay: MRL-Ipr mouse model of systemic lupus erythematosus; format: in vivo, MRL-Ipr female mice
# Procedure: FIG. 16. […] SLE-like disease progression in MRL-Ipr female mice (Jackson Laboratories) was evaluated. Briefly, 10 mice per treatment arm were followed for the development of SLE-like disease over the course of 16 weeks. […] Animals were scored on a weekly basis for proteinuria and survived until 23 weeks of age. Data represent the average proteinuria concentration in urine collected from each mouse using Uristix (Bayer Corp.). Error bars represent SEM. The Mann-Whitney test was used to determine significance between vehicle and digitoxin groups. Asterisks represent significant P values <0.01.
# FIG. 17. […] At endpoint, 23 week old female MRL-Ipr mice were sacrificed and kidneys were fixed, embedded in paraffin, sectioned longitudinally and stained for glomeruli with periodic acid-Schiff stain (Histotec). (A) Depiction of a section taken from a representative vehicle treated kidney. (B) Depiction of a section taken from a representative digitoxin treated kidney.
# FIG. 18. […] Endpoint serum titers were taken for each mouse and the concentration of anti-double-stranded DNA (ANA) antibodies were assessed (A). […] ANA antibodies were measured using ELISA (Alpha Diagnostic International). Error bars represent the SEM. The student t-test was used to determine significance. Asterisks represent significant P values.
# Cardiac glycosides are used for the treatment of systemic lupus erythematosus and other forms of multi-system inflammatory diseases. […] Studies are conducted to determine the ability of cardiac glycosides to treat SLE. The effectiveness of cardiac glycosides at treating SLE disease progression in MRL-Ipr female mice (Jackson Laboratories) was evaluated. Briefly, 10 mice per experimental arm were followed for the development of SLE disease. […] Animals were scored on a weekly basis for proteinuria and survived until 23 weeks of age (FIG. 16). Weekly proteinuria monitoring was performed using Uristix (Bayer Corp.). […] Endpoint serum titres of double-stranded DNA (ANA) antibodies for each mouse were assessed (FIG. 18 A). […] ANA antibodies were measured using ELISA (Alpha Diagnostic International). […]
# [2] = test system: B cells from CIA mice; assay: RT-PCR cytokine gene expression in cells purified from CIA mice; format: cell-based; conditions: 33 nM and 100 nM, 45 minutes
# Procedure: IL-10 (FIG. 20 A) and TGFβ1 (FIG. 20 B) levels were quantified. Samples were normalized against Ywhaz1 and Hprt1 housekeeping genes. […] Samples were examined in triplicates and the error bars represent the SEM. […] After 30 minutes, cells were washed, lysed and mRNA was isolated with Trizol (Invitrogen). RT-PCR was performed on mRNA and samples were normalized against housekeeping genes, Ywhaz1 and Hprt1. Data represent the average fold change in IL-10 gene expression compared to media alone. Error bars represent SEM of triplicates.
# RT-PCR was performed and TGFβ1, IL-10 and IL-6 mRNA levels were quantified. Sample cDNA levels were normalized against housekeeping genes Ywhaz1 and Hprt1. Data represent the average fold change in IL-10 gene expression compared to media alone. Error bars represent SEM of triplicates.
# RT-PCR was performed and TGFβ1 and IL-10 levels were quantified and samples were normalized against Ywhaz1 and Hprt1. Data represent the average fold gene induction of triplicates and error bars represent SEM.
# [3] = test system: splenocytes derived from mice with CIA; assay: CIA splenocyte proliferation (3H-thymidine incorporation); format: cell-based
# Procedure: (§1) Activity was monitored by ^3H-thymidine incorporation as a read-out for proliferation. […] Cell type(s) in the splenocyte population responsive to therapeutic concentrations of cardiac glycoside were determined by identifying the population of cells that responded to a dose-dependent decrease in activity in the presence of stimulant, defined as ligand(s) binding to cognate receptor(s). Activity was analyzed by: ^3H-thymidine or BrdU incorporation to monitor proliferation or by ELISA to monitor cytokine production. Splenic T lymphocytes were isolated by negative selection (MACS, Miltinyi Biotec) and are stimulated with PMA, ConA or through the TCR with anti-CD3/anti-CD28 Dynabeads (Invitrogen) and collagen II (all non-TNFR receptors/pathways). […] Peritoneal and bone marrow-derived macrophages were isolated from CIA mice in the presence of M-CSF growth factor and were stimulated with TNF and CD40 ligand (CD40L). […] Splenic B lymphocytes were isolated by negative selection (MACS, Miltinyi Biotec) and were stimulated with BAFF (BLyS), CD40L or through the BCR with anti-IgM u-chain specific antibodies.
# [4] = test system: BAFFR; assay: BAFF-mediated stimulation of B cells; format: cell-based, mice; conditions: 33 nM pre-treatment, BAFF 0.5 or 5 μg/ml
# Procedure: as §1
# [5] = test system: collagen-induced arthritis (CIA) joints; format: in vivo, DBA1/J mice; conditions: cross-sectioned ankle joints, CIA prevention groups
# Procedure: FIG. 7. Cardiac glycosides reduce joint pathology in the CIA mouse model for rheumatoid arthritis. Blinded scoring was performed on histologic sections of joints harvested from mice at the end of a CIA prevention study (A-C). Joints derived from three representative mice belonging to each prevention group (A-C) were decalcified, fixed and stained with tolidine blue, followed by scoring by an examiner blinded to treatment status for the severity of synovitis (inflammation), pannus (growth of the synovial lining), and erosions of bone. (D-G) Joints derived from three representative mice belonging to each prevention group were decalcified, fixed, and stained with hematoxylin and eosin. Cross-sectioned ankle joints from vehicle (D), digitoxin (E), ouabain (F) and proscillaridin (G) treated mice are presented. Error bars represent SEM, and asterisks indicate P-values less than 0.05 by Mann-Whitney test.
# In treatment studies, mice were randomly enrolled in treatment groups and treatment commenced when the average clinical score was at or above 2. […] Daily dosing commenced upon enrollment at the abovementioned concentrations. […] Double-blinded histopathology scoring was conducted of cross-sectioned joints taken from cardiac glycoside and vehicle recipients. […] The results obtained from these animal studies indicate that cardiac glycosides are effective at reducing the clinical manifestations of disease and reducing joint pathology in mice with collagen arthritis.
# The effects of the different cardiac glycoside treatments on CIA pathology was analyzed by histological scoring. Inflammatory cell infiltrate, synovial hyperplasia, pannus formation and articular cartilage and bone deterioration were evaluated in sectioned paws of treated mice at specific time-points throughout the disease course. […] The ELISA was developed and read using BD ELISA development kit. […]
smiles,measurement,setting,value
"C[C@H]1O[C@@H](O[C@H]2[C@@H](O)C[C@H](O[C@H]3[C@@H](O)C[C@H](O[C@H]4CC[C@@]5(C)[C@H](CC[C@@H]6[C@@H]5CC[C@]5(C)[C@@H](C7=CC(=O)OC7)CC[C@]65O)C4)O[C@@H]3C)O[C@@H]2C)C[C@H](O)[C@@H]1O [Digitoxin, digitoxin]",disease severity (average proteinuria) in experimental lupus,"[1]; 0.6 mg/kg every-4-days sublingual from week 8, 10 mice per arm, Mann-Whitney P<0.01",decrease disease severity
same,kidney pathology (periodic acid-Schiff stained glomeruli),"[1]; 23 week old mice at endpoint, 0.6 mg/kg every-4-days sublingual",decrease kidney pathology
same,endpoint serum anti-double-stranded DNA (ANA) antibodies,"[1]; endpoint serum, ELISA",inhibit autoantibody production
same,IL-6 mRNA expression in B cells,[2],inhibit IL-6 expression
same,IL-10 mRNA expression in B cells,[2],induce
same,TGFβ1 mRNA expression in B cells,[2],induce
same,proliferation of unstimulated or collagen II-stimulated splenocytes,[3],inhibits the proliferation
same,BAFF-mediated stimulation of B cells through BAFFR,[4],inhibited BAFF-mediated stimulation
same,immune cell infiltrate into the joints (hematoxylin and eosin),[5],decreased amounts of immune cell infiltrate
